Test results taken from publication PMC8480776, “Selenium Derivatives as Promising Therapy for Chagas Disease: In Vitro and In Vivo Studies” (ACS Infectious Diseases, 2021).
Read-outs that look alike come from different tables or passages of the source.

Assays:
[1] = tested on: Trypanosoma cruzi Fe-SOD; assay: SOD enzymatic inhibition, Fe-SOD; type: biochemical
[2] = tested on: T. cruzi epimastigotes, Arequipa strain; assay: Screening against extracellular epimastigotes, Arequipa strain; type: cell-based, Trypanosoma cruzi
[3] = tested on: T. cruzi trypomastigotes, Tulahuen strain; assay: Screening against bloodstream trypomastigotes, Tulahuen strain; type: cell-based, Trypanosoma cruzi
[4] = tested on: T. cruzi Arequipa strain; assay: In vivo trypanocidal activity on BALB/c mice (acute and chronic Chagas disease); parameters: species or system Trypanosoma cruzi
Protocol: (§1) Female BALB/c mice aged 10–12 weeks and with a size of 20–24 g were divided into five groups (n = 3 per group): 0, negative control group (uninfected and untreated mice); I, positive control group (infected and untreated mice); II, BZN group (infected mice treated with BZN); III, 26 group (infected mice treated with 26); and IV, 28 group (infected mice treated with 28).
Mice were infected by intraperitoneal injection of 5 × 10^5 BTs of T. cruzi Arequipa strain per mouse in 200 μL PBS.[42] Subsequently, the treatment was intraperitoneally administered (∼200 μL) once daily for 5 consecutive days.
(§2) The tested selenocompounds and BZN were prepared at 2 mg·mL^–1 in an aqueous suspension vehicle containing 5% (v/v) DMSO and 0.5% (w/v) hydroxypropyl methylcellulose, as previously reported.[52] Compounds (20 mg·kg^–1 per day) were administered for 5 consecutive days (total dosages of 100 mg·kg^–1), and vehicle only was administered in the negative and positive control groups. Treatments began when the infection was confirmed (9 dpi) for acute-phase-treated mice, and when it was established that the animals moved into the chronic phase (100 dpi, for chronic-phase-treated mice; Scheme 1).
[…]. Parasitemia was expressed as parasites·mL^–1.
Immunosuppression was performed by intraperitoneal injection of three doses of 200 mg·kg^–1 of ISOPAC CP at 3–4 day intervals (Scheme 1), as previously reported.[53] Mice were closely monitored for side effects or for secondary infections due to immunosuppression. Within 7 days after the last CP injection, parasitemia reactivation was determined by counting BTs according the procedure described for parasitemia in the acute phase.[42]
On 145 dpi, the mice were euthanized using CO2, followed by exsanguination via cardiac puncture, and blood was collected. […]. In addition, spleens were weighed to assess splenomegaly.[42]
DNA extraction of the post-mortem organs/tissues was performed using Wizard Genomic DNA Purification Kit,[41] and the extracted DNA was subjected to amplification by PCR based on the spliced leader (SL) intergenic region sequence of T. cruzi (for detailed description, see literature reported previously).[55] Finally, the PCR products were resolved by electrophoresis on a 2% agarose gel (containing GelRed nucleic gel stain) for 90 min at 90 V.
Circulating antibodies in serum against both antigens were quantitatively evaluated in triplicate by the ELISA test in 96-well plates using diluted serum samples (1:80 in PBS), as previously described.[41]

[5] = tested on: T. cruzi amastigotes, Arequipa strain; assay: Screening against intracellular amastigotes, Arequipa strain; type: cell-based, Trypanosoma cruzi
[6] = tested on: T. cruzi amastigotes, SN3 strain; assay: Screening against intracellular amastigotes, SN3 strain; type: cell-based, Trypanosoma cruzi
[7] = tested on: T. cruzi epimastigotes, Tulahuen strain; assay: Screening against extracellular epimastigotes, Tulahuen strain; type: cell-based, Trypanosoma cruzi
[8] = tested on: Vero cells infected with T. cruzi Arequipa strain; assay: Infection rate in Vero cells (infected cells), Arequipa strain; type: cell-based; conditions: Trypanosoma cruzi, 72 h of treatment
[9] = type: in vivo, BALB/c mice; conditions: variation vs control
Protocol: as §1, §2
Serum samples obtained from blood in several days post-infection (Scheme 1) were sent to the Biochemical Service (University of Granada) to measure a series of biochemical parameters with the commercial Cromakit using a clinical chemistry analyzer (BS-200, Shenzhen Mindray Biomedical Electronics Co., LTD), as previously described.[41]

[10] = tested on: T. cruzi amastigotes, Tulahuen strain; assay: Screening against intracellular amastigotes, Tulahuen strain; type: cell-based, Trypanosoma cruzi
[11] = tested on: T. cruzi trypomastigotes, Arequipa strain; assay: Screening against bloodstream trypomastigotes, Arequipa strain; type: cell-based, Trypanosoma cruzi
[12] = tested on: Vero cells; assay: Cytotoxicity test on Vero cells; type: cell-based; conditions: Chlorocebus sabaeus, 48 h + 24 h resazurin, read-out: Toxicity IC50 Vero cell
[13] = biological target: T1, human erythrocytes CuZn-SOD (Homo sapiens, UniProt P00441); assay: SOD enzymatic inhibition, CuZn-SOD; type: biochemical
T1 construct: commercial copper/zinc superoxide dismutase (Cu/Zn-SOD) from human erythrocytes (Sigma-Aldrich); purchased Sigma-Aldrich; host or cells: human erythrocytes (natural source)

[14] = tested on: T. cruzi trypomastigotes, SN3 strain; assay: Screening against bloodstream trypomastigotes, SN3 strain; type: cell-based, Trypanosoma cruzi
[15] = tested on: epimastigotes of T. cruzi Arequipa strain; assay: Flow cytometry analysis of nucleic acid levels (acridine orange); type: cell-based, Trypanosoma cruzi; conditions: IC25 concentrations, 72 h
[16] = tested on: T. cruzi epimastigotes, SN3 strain; assay: Screening against extracellular epimastigotes, SN3 strain; type: cell-based, Trypanosoma cruzi
[17] = IC50 Vero cells/IC50 epimastigotes
[18] = IC50 Vero cells/IC50 trypomastigotes
[19] = 20 mg·kg–1 per day i.p. 5 days from 9 dpi
[20] = 20 mg·kg–1 per day i.p. 5 days from 100 dpi
[21] = 20 mg·kg–1 per day i.p. for 5 days from 9 dpi
[22] = IC50 Vero cells/IC50 amastigotes
[23] = treatment in acute phase, 15th dpi (2 days after treatment)
[24] = treatment in acute phase, necropsy day
[25] = treatment in chronic phase, 106th dpi (2 days after treatment)
[26] = treatment in chronic phase, necropsy day

T1 sequence (P00441 whole entry): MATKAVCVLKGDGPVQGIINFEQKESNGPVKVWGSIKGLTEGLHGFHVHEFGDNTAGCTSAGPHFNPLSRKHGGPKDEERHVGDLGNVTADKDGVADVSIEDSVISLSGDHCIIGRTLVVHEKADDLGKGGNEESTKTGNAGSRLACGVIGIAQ

Question: Which results are given for `N#C[Se]c1ccc(NC(=O)c2ccc(C(F)(F)F)cc2)cc1` [Compound 26]?
Answer: IC50 [1]: 51.9 µM; Selectivity index (SI), epimastigotes, Arequipa strain [2, 17]: 84; IC50 ([2]; Trypanosoma cruzi, 48 h + 24 h resazurin, read-out: Activity IC50, epimastigote form, Arequipa strain): 1.6 ± 0.3 µM; selectivity index (SI), Tulahuen strain, trypom. forms [3, 18]: 46; IC50 ([3]; Trypanosoma cruzi, TULAHUEN, bloodstream trypomastigotes, 24 h + 4 h resazurin, read-out: activity IC50, Tulahuen strain, trypom. forms): 2.9 ± 0.2 µM; anti-T. cruzi IgG levels (ELISA), acute phase treatment [4, 19]: lower IgG values than the treated with BZN at the beginning of the treatment; splenomegaly reduction in comparison with untreated mice, acute phase treatment [4, 19]: 49%; parasitaemia reactivation after immunosuppression, acute phase treatment ([4]; 20 mg·kg–1 per day i.p. 5 days from 9 dpi, compared to untreated group): approximately 65%; parasite-free organs/tissues by PCR, acute phase treatment ([4]; 20 mg·kg–1 per day i.p. 5 days from 9 dpi, necropsy 145 dpi): 42.9%; anti-T. cruzi IgG levels (ELISA), chronic phase treatment [4, 20]: similar; splenomegaly reduction in comparison with untreated mice, chronic phase treatment [4, 20]: 38%; parasitaemia reactivation after immunosuppression, chronic phase treatment ([4]; 20 mg·kg–1 per day i.p. 5 days from 100 dpi, compared to untreated group): ~60%; parasite-free organs/tissues by PCR, chronic phase treatment ([4]; 20 mg·kg–1 per day i.p. 5 days from 100 dpi, necropsy 145 dpi): 42.9%; day at which parasitaemia was resolved [4, 21]: 48 dpi; parasitaemia profile during the acute phase [4, 21]: better activity profile compared to that of BZN; selectivity index (SI), Arequipa strain, am. forms [5, 22]: 25; IC50 ([5]; Trypanosoma cruzi, amastigotes in Vero cells, 72 h, read-out: activity IC50, Arequipa strain, am. forms): 5.4 ± 0.7 µM; selectivity index (SI), SN3 strain, am. forms [6, 22]: 34; IC50 ([6]; Trypanosoma cruzi, amastigotes in Vero cells, 72 h, read-out: activity IC50, SN3 strain, am. forms): 3.9 ± 0.5 µM; Selectivity index (SI), epimastigotes, Tulahuen strain [7, 17]: 52; IC50 ([7]; Trypanosoma cruzi, TULAHUEN, 48 h + 24 h resazurin, read-out: Activity IC50, epimastigote form, Tulahuen strain): 2.6 ± 0.4 µM; IC50 [8]: 22.4 µM; ALP (liver marker) [9, 23]: + (+/-, 10-20% increase/decrease over the range); ALT/GPT (liver marker) [9, 23]: ++ (++/--, 20-30% increase/decrease over the range); AST/GOT (liver marker) [9, 23]: ++ (++/--, 20-30% increase/decrease over the range); CK-MB (heart marker) [9, 23]: ++++ (++++/----, ˃ 40% increase/decrease over the range); LDH (heart marker) [9, 23]: + (+/-, 10-20% increase/decrease over the range); Total bilirubin (liver marker) [9, 23]: ++ (++/--, 20-30% increase/decrease over the range); Urea (kidney marker) [9, 23]: -- (++/--, 20-30% increase/decrease over the range); Uric acid (kidney marker) [9, 23]: ---- (++++/----, ˃ 40% increase/decrease over the range); ALP (liver marker) [9, 24]: ++ (++/--, 20-30% increase/decrease over the range); ALT/GPT (liver marker) [9, 24]: ++ (++/--, 20-30% increase/decrease over the range); AST/GOT (liver marker) [9, 24]: = (=, variation ≤ 10%); CK-MB (heart marker) [9, 24]: = (=, variation ≤ 10%); LDH (heart marker) [9, 24]: = (=, variation ≤ 10%); Total bilirubin (liver marker) [9, 24]: + (+/-, 10-20% increase/decrease over the range); Urea (kidney marker) [9, 24]: = (=, variation ≤ 10%); Uric acid (kidney marker) [9, 24]: = (=, variation ≤ 10%); ALP (liver marker) [9, 25]: = (=, variation ≤ 10%); ALT/GPT (liver marker) [9, 25]: ++ (++/--, 20-30% increase/decrease over the range); AST/GOT (liver marker) [9, 25]: +++ (+++/---, 30-40% increase/decrease over the range); CK-MB (heart marker) [9, 25]: + (+/-, 10-20% increase/decrease over the range); LDH (heart marker) [9, 25]: = (=, variation ≤ 10%); Total bilirubin (liver marker) [9, 25]: +++ (+++/---, 30-40% increase/decrease over the range); Urea (kidney marker) [9, 25]: --- (+++/---, 30-40% increase/decrease over the range); Uric acid (kidney marker) [9, 25]: - (+/-, 10-20% increase/decrease over the range); ALP (liver marker) [9, 26]: = (=, variation ≤ 10%); ALT/GPT (liver marker) [9, 26]: = (=, variation ≤ 10%); AST/GOT (liver marker) [9, 26]: = (=, variation ≤ 10%); CK-MB (heart marker) [9, 26]: + (+/-, 10-20% increase/decrease over the range); LDH (heart marker) [9, 26]: = (=, variation ≤ 10%); Total bilirubin (liver marker) [9, 26]: ++ (++/--, 20-30% increase/decrease over the range); Urea (kidney marker) [9, 26]: = (=, variation ≤ 10%); Uric acid (kidney marker) [9, 26]: - (+/-, 10-20% increase/decrease over the range); selectivity index (SI), Tulahuen strain, am. forms [10, 22]: 27; IC50 ([10]; Trypanosoma cruzi, TULAHUEN, amastigotes in Vero cells, 72 h, read-out: activity IC50, Tulahuen strain, am. forms): 4.9 ± 0.3 µM; selectivity index (SI), Arequipa strain, trypom. forms [11, 18]: 56; IC50 ([11]; Trypanosoma cruzi, bloodstream trypomastigotes, 24 h + 4 h resazurin, read-out: activity IC50, Arequipa strain, trypom. forms): 2.4 ± 0.3 µM; CC50 [12]: 134 ± 11.3 µM; IC50 [13]: > 100 µM; selectivity index (SI), SN3 strain, trypom. forms [14, 18]: 52; IC50 ([14]; Trypanosoma cruzi, bloodstream trypomastigotes, 24 h + 4 h resazurin, read-out: activity IC50, SN3 strain, trypom. forms): 2.5 ± 0.3 µM; inhibition of nucleic acid levels [15]: 47%; Selectivity index (SI), epimastigotes, SN3 strain [16, 17]: 64; IC50 ([16]; Trypanosoma cruzi, 48 h + 24 h resazurin, read-out: Activity IC50, epimastigote form, SN3 strain): 2.1 ± 0.3 µM
